The assay has as its target T1, human PAR-2 (Homo sapiens, UniProt P55085).
T1 construct: Human colorectal adenocarcinoma cell line, HCT-15, expressing endogenous PAR-2 at high levels; endogenous in cells; host or cells: HCT-15 (human colorectal adenocarcinoma)
T1 sequence (P55085 26-397): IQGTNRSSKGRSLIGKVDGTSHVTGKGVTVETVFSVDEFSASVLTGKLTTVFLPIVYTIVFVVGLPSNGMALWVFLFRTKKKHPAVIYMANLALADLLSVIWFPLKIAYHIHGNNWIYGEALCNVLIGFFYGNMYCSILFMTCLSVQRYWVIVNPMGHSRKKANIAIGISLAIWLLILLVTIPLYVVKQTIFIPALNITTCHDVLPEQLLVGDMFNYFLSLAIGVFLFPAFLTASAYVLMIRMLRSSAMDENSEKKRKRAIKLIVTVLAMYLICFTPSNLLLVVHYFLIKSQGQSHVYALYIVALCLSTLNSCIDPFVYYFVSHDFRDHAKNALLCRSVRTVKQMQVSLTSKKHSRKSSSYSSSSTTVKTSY
As to the kind of experiment: PAR-2 activation potency: intracellular calcium mobilization assay (modified Hawthorne's method) in HCT-15 cells. The assay is classed as cell-based. The text has this:
PAR-2 activation with the peptide derivative represented by the general formula (I) in accordance with the invention can be tested by various known methods. For example, the Hollenberg's method (Hollenberg, M. D., et al., Can. J. Physiol. Pharmacol., 75, 832-841 (1997)), the Kawabata's method (Kawabata, A., et al., J. Pharmacol. Exp. Ther., 288, 358-370 (1999)) and the Hawthorne's method (Howthorne et al., A High-Throughput Microtiter Plate-Based Calcium Assay for the Study of Protease-Activated Receptor 2 Activation, Analytical Biochemistry 290, 378-379 (2001)) may be used for the test.
The inventors tested the PAR-2 activation potency according to the modified Hawthorne's method. In brief, that is the assay of the calcium mobilization in cells endogenously expressing human PAR-2. In this assay, cells were loaded with Fluorescent Ca2+ indicator dye in presence of Probenecid, an inhibitor of anion exchange transporter, and stimulated with agonists. The agonist-mediated intracellular calcium mobilization was measured using multiwell plate reader.
Human colorectal adenocarcinoma cell line, HCT-15, expressing endogenous PAR-2 at high levels were seeded in 96-well black wall clear bottom plates and subconfluent cells were loaded with Fluorescent Ca2+ indicator dye (Calcium Plus Assay Reagent, Molecular Devices) in serum free medium (RPMI) containing 2.5 mM Probenecid and incubated for 1 hr at 37 C. Then cells were stimulated with various concentrations of test compounds and fluorescent change was determined at wave length of 485 nm for excitation and 525 nm for emission (Cutoff 515 nm) using multiwell scanning fluorometer (FlexStation, Molecular Devices).
SLIGKV-OH (SEQ ID NO: 2) as a known PAR-2 activation peptide was used as a comparative compound, and the results are shown below in Table 1.
For orientation: Calcium flux is commonly read through the fluorescence of an indicator in the cells.

pEC50: −log10 of the molar value. Read-outs that look alike come from different tables or passages of the source. Peptide text beside a SMILES is read from it. * marks the point of attachment. 2Furoyl = O=C(c1ccco1)*

As usually defined, the pEC50 is the EC50 on a negative log10 scale, so that one unit is a factor of ten. `CC[C@H](C)[C@H](NC(=O)[C@H](CC(C)C)NC(=O)c1ccco1)C(=O)NCC(=O)N[C@@H](CCCCN)C(=O)N[C@H](C(=O)O)C(C)C` [Example 6] (2Furoyl-LIGKV-OH; C-terminus assumed): the negative-log EC50 (pEC50) is 5.77.

Consider `CC[C@H](C)[C@H](NC(=O)[C@H](CC(C)C)NC(=O)c1ccco1)C(=O)NCC(=O)N[C@@H](CCCCN)C(=O)N[C@H](C(N)=O)C(C)C` [Example 16] (2Furoyl-LIGKV-NH2; C-terminus assumed), for which the negative-log EC50 (pEC50) was 6.49.

`CC[C@H](C)[C@H](NC(=O)[C@H](CC(C)C)NC(=O)c1ccco1)C(=O)NCC(=O)N[C@@H](CCCNC(=N)N)C(=O)N[C@@H](CC(C)C)C(=O)O` [Example 18]: the pEC50 was 5.92.

Turning to “H-SLIGKV-OH [SLIGKV-OH, reference compound]”, for the setting “HCT-15 cells expressing endogenous PAR-2, fluorescent Ca2+ indicator dye, 2.5 mM Probenecid, read-out: Agonist Activity (EC50)”, the pEC50 was 4.64.

These data come from US7541339B2, “Par-2-activating peptide derivative and pharmaceutical composition using the same” (The University of Edinburgh, priority 2002, dated 2009).
